Results as given in patent US20240016895A1, “HEPCIDIN MIMETICS FOR TREATMENT OF SICKLE CELL DISEASE” (Protagonist Therapeutics, Inc., priority 2022, published 2024).
“Also recorded” adds a separate entry of the source. Where a SMILES comes first, the peptide text is derived from it.

Legend:
Assay type in all cases: in vivo
Townes SCD mice [1] = test: Spleen and liver weights and organ to body weight ratios at terminus in Townes SCD mice
Experimental: […] 36 Townes SCD and 6 129S1/SvlmJ (wild-type), female mice, 5 weeks old upon delivery. A control group of wild-type mice (groups 1, N=6) was treated with vehicle as well as another SCD mice (group 2, N=9). All mice were dosed three times per week (TIW). All mice were maintained on an iron-adjusted diet (TD.140258, 35 ppm iron) throughout the study. Collections and necropsies were performed 24 hours post-last dose of compound or vehicle. After 4 weeks on study, animals from each group were euthanized, EDTA whole blood collected for CBC and serum was collected for hemolysis biomarker analysis. Spleens and livers were weighed at terminus. Liver, spleen, kidney, heart and brain were collected for future analysis. Serum and urine were collected to analyze chemistry markers, such as bilirubin, LDH (lactate dehydrogenase), haptoglobin, urine creatinine, urine total protein and urine urea nitrogen.

Townes SCD mice [2] = test: Complete blood count (hematological parameters) in Townes SCD mice treated for 4 weeks; settings: for % Retics / Abs Retics / HCT / HGB / MCH / MCHC / MCV / RBC: 4 weeks
Experimental: (§1) Compound 46, a hepcidin mimetic, was administered subcutaneously at 1.0 mg/kg (group 3, N=9) or 2.5 mg/kg (group 4, N=9) in Townes SCD mice. 36 Townes SCD and 6 129S1/SvlmJ (wild-type), female mice, 5 weeks old upon delivery. A control group of wild-type mice (groups 1, N=6) was treated with vehicle as well as another SCD mice (group 2, N=9). All mice were dosed three times per week (TIW). All mice were maintained on an iron-adjusted diet (TD.140258, 35 ppm iron) throughout the study. Collections and necropsies were performed 24 hours post-last dose of compound or vehicle. After 4 weeks on study, animals from each group were euthanized, EDTA whole blood collected for CBC and serum was collected for hemolysis biomarker analysis. Spleens and livers were weighed at terminus. Liver, spleen, kidney, heart and brain were collected for future analysis. Serum and urine were collected to analyze chemistry markers, such as bilirubin, LDH (lactate dehydrogenase), haptoglobin, urine creatinine, urine total protein and urine urea nitrogen.
As shown in FIG. 4A and FIG. 4B, reticulocytes were counted both with the automated analyzer as well as manually from a new methylene blue stained blood smear by counting the number of positive stained cells encountered in 500 erythrocytes and calculating the percentage.

Townes SCD mice [3] = test: Serum RBC hemolysis biomarkers (total bilirubin, LDH) in Townes SCD mice treated for 4 weeks; settings: for LDH / Total bilirubin: serum, 4 weeks
Experimental: as §1
Serum total bilirubin and serum lactate dehydrogenase are hemolysis biomarkers.

[4] = Dose 1 (mg/kg subcutaneously TIW)
[5] = Dose 2.5 (mg/kg subcutaneously TIW)

Structure (SMILES): CCCCCCCCCCCCCCCC(=O)N[C@@H](CCC(=O)NCCCC[C@@H]1NC(=O)[C@H]([C@@H](C)CC)NC(=O)[C@@H](NC(=O)[C@@H]2CCCN2C(=O)[C@H](Cc2ccccc2)NC(=O)[C@H](Cc2cnc[nH]2)NC(=O)[C@@H](NC(=O)[C@H](CCC(=O)O)NC(=O)CC(C)C)[C@@H](C)O)CSSC[C@@H](C(=O)N[C@@H](CCCCN)C(N)=O)NC(=O)CNC(=O)[C@H](CCCCN)NC(=O)[C@H](CO)NC(=O)[C@H](CCCNC(=N)N)NC(=O)[C@@H]2CCCN2C(=O)[C@H](CCC(=O)O)NC(=O)[C@H](Cc2ccccc2)NC1=O)C(=O)O [Compound 46, Isovaleric_Acid-ETHFPCI(K(IsoGlu_Palm))FEPRSKGCK-NH2] (HELM PEPTIDE1{[CC(C)CC(=O)[*:2]].E.T.H.F.P.C.I.K.F.E.P.R.S.K.G.C.K.[am]}|PEPTIDE2{[CCCCCCCCCCCCCCCC(=O)[*:2]].[gGlu]}$PEPTIDE1,PEPTIDE2,9:R3-2:R2|PEPTIDE1,PEPTIDE1,7:R3-17:R3$$$V2.0)
- Liver Weight (Townes SCD mice [1]; SCD mice, Dose 1): 1.290 g
- Liver:BW Ratio (Townes SCD mice [1]; SCD mice, Dose 1): 0.0633 g/g
- Spleen Weight (Townes SCD mice [1]; SCD mice, Dose 1): 1.035 g
- Spleen:BW Ratio (Townes SCD mice [1]; SCD mice, Dose 1): 0.0508 g/g
- Liver Weight (Townes SCD mice [1]; SCD mice, Dose 2.5): 1.138 g
- Liver:BW Ratio (Townes SCD mice [1]; SCD mice, Dose 2.5): 0.0573 g/g
- Spleen Weight (Townes SCD mice [1]; SCD mice, Dose 2.5): 0.725 g
- Spleen:BW Ratio (Townes SCD mice [1]; SCD mice, Dose 2.5): 0.0365 g/g
- Liver Weight (Townes SCD mice [1]; SCD mice, Dose 7.5): 0.758 g
- Liver:BW Ratio (Townes SCD mice [1]; SCD mice, Dose 7.5): 0.0549 g/g
- Spleen Weight (Townes SCD mice [1]; SCD mice, Dose 7.5): 0.301 g
- Spleen:BW Ratio (Townes SCD mice [1]; SCD mice, Dose 7.5): 0.0217 g/g
- Spleen weights compared to vehicle (Townes SCD mice [1]; SCD mice, result in words, FIG. 1A): significantly and dose-dependently lower
- Spleen to body weight ratios compared to vehicle (Townes SCD mice [1]; SCD mice, result in words, FIG. 1B): significantly and dose-dependently lower
- Liver weight compared to vehicle treated SCD mice (Townes SCD mice [1]; SCD mice, result in words, FIG. 2A): significantly lower in a dose dependent manner
- Liver to body weight ratios compared to vehicle treated SCD mice (Townes SCD mice [1]; SCD mice, result in words, FIG. 2B): significantly lower in a dose dependent manner
- Spleen size (Townes SCD mice [1]; Townes SCD mice, figure legend FIG. 1A/1B): reduces spleen size
- Liver size (Townes SCD mice [1]; Townes SCD mice, figure legend FIG. 2A/2B): reduces liver size
- RBC count (Townes SCD mice [2]; 2.5 mg/kg dose, result in words, FIG. 3A): significantly reduced
- Percent of reticulocytes compared to vehicle control (Townes SCD mice [2]; 2.5 mg/kg dose, result in words, FIG. 4B): decreased percent of reticulocytes significantly
- Mean corpuscular hemoglobin concentration (MCHC) compared to vehicle control (Townes SCD mice [2]; 2.5 mg/kg, result in words, FIG. 6B): significant increase in MCHC
- % Retics (Townes SCD mice [2]; [4]): 65.78 ± 12.23%
- Abs Retics (Townes SCD mice [2]; [4]): 2612 ± 627.9 K/uL
- HCT (Townes SCD mice [2]; [4]): 29.62 ± 3.45 %
- HGB (Townes SCD mice [2]; [4]): 5.89 ± 0.93 g/dL
- MCH (Townes SCD mice [2]; [4]): 9.89 ± 0.45 pg
- MCHC (Townes SCD mice [2]; [4]): 19.82 ± 1.65 g/dL
- MCV (Townes SCD mice [2]; [4]): 50.11 ± 3.41 fL
- RBC (Townes SCD mice [2]; [4]): 5.94 ± 0.78 M/uL
- % Retics (Townes SCD mice [2]; [5]): 50.33 ± 6.73 %
- Abs Retics (Townes SCD mice [2]; [5]): 1195 ± 246.5 K/uL
- HCT (Townes SCD mice [2]; [5]): 16.27 ± 7.23 %
- HGB (Townes SCD mice [2]; [5]): 4.39 ± 0.36 g/dL
- MCH (Townes SCD mice [2]; [5]): 9.82 ± 0.63 pg
- MCHC (Townes SCD mice [2]; [5]): 23.22 ± 3.10 g/dL
- MCV (Townes SCD mice [2]; [5]): 42.56 ± 3.81 fL
- RBC (Townes SCD mice [2]; [5]): 4.49 ± 0.55 M/uL
- Hgb level (Townes SCD mice [2]; result in words, FIG. 3B): significantly reduced in all three dose groups
- Hematocrit (HCT) (Townes SCD mice [2]; result in words, FIG. 5A): significant reduction of HCT in a dose dependent manner
- Mean corpuscular volume (MCV) compared to the vehicle group (Townes SCD mice [2]; result in words, FIG. 5B): significant reduction of MCV in a dose dependent manner
- Mean corpuscular hemoglobin (MCH) compared to vehicle control (Townes SCD mice [2]; result in words, FIG. 6A): significant reduction in MCH
- White blood cell (WBC) count (Townes SCD mice [2]; result in words, FIG. 7A): significant WBC and lymphocyte reduction in a dose dependent manner; also recorded: alleviated elevated white blood cell (WBC) and lymphocytes counts
- Lymphocyte count (Townes SCD mice [2]; result in words, FIG. 7B): significant WBC and lymphocyte reduction in a dose dependent manner; also recorded: alleviated elevated white blood cell (WBC) and lymphocytes counts
- Neutrophil count (Townes SCD mice [2]; result in words, FIG. 8A): significantly decreased neutrophil count in a dose dependent manner; also recorded: alleviated elevated neutrophil and monocyte counts
- Monocyte count (Townes SCD mice [2]; result in words, FIG. 8B): alleviated elevated neutrophil and monocyte counts
- Serum total bilirubin (Townes SCD mice [3]; result in words, FIG. 9A): significantly reduced both parameters in a dose dependent manner
- Serum lactate dehydrogenase (LDH) (Townes SCD mice [3]; result in words, FIG. 9B): significantly reduced both parameters in a dose dependent manner
- LDH (Townes SCD mice [3]; [4]): 610.6 ± 341.0 U/L
- Total bilirubin (Townes SCD mice [3]; [4]): 2.16 ± 0.34 mg/dL
- LDH (Townes SCD mice [3]; [5]): 372.3 ± 70.96 U/L
- Total bilirubin (Townes SCD mice [3]; [5]): 1.13 ± 0.37 mg/dL
